Experimental data taken from ChEMBL document CHEMBL5325391, “Spirolactone-type and enmein-type derivatives as potential anti-cancer agents derived from oridonin” (Bioorg Med Chem, 2022).

How the values were obtained:
MDA-MB-231 = assay: Antiproliferative activity against human MDA-MB-231 cells assessed as reduction in cell growth after 72 hrs by MTT assay; assay type: functional, cell-based; settings: MDA-MB-231, 72 h
K562 [1] = assay: Antiproliferative activity against human K562 cells assessed as reduction in cell growth after 72 hrs by MTT assay; assay type: functional, cell-based; settings: K562, 72 h
K562 [2] = assay: Induction of apoptosis in human K562 cells assessed as necrotic cells at 100 nM incubated for 48 hrs by Annexin-V and PI staining based flow cytometry analysis (reference value: 1.72%); assay type: functional
K562 [3] = assay: Induction of apoptosis in human K562 cells assessed as early apoptotic cells at 100 nM incubated for 48 hrs by Annexin-V and PI staining based flow cytometry analysis (reference value: 1.98%); assay type: functional
K562 [4] = assay: Induction of apoptosis in human K562 cells assessed as late apoptotic cells at 200 nM incubated for 48 hrs by Annexin-V and PI staining based flow cytometry analysis (reference value: 2.42%); assay type: functional
K562 [5] = assay: Induction of cell cycle arrest in human K562 cells assessed as accumulation of cells at G1 phase at 200 nM incubated for 48 hrs by PI staining based flow cytometry analysis (reference value: 68.84%); assay type: functional
K562 [6] = assay: Induction of apoptosis in human K562 cells assessed as viable cells at 200 nM incubated for 48 hrs by Annexin-V and PI staining based flow cytometry analysis (reference value: 93.87%); assay type: functional; settings: read-out: Activity
K562 [7] = assay: Induction of apoptosis in human K562 cells assessed as necrotic cells at 200 nM incubated for 48 hrs by Annexin-V and PI staining based flow cytometry analysis (reference value: 1.72%); assay type: functional
SMMC-7721 = assay: Antiproliferative activity against human SMMC-7721 cells assessed as reduction in cell growth after 72 hrs by MTT assay; assay type: functional, cell-based; settings: SMMC-7721, 72 h
K562 [8] = assay: Potency index, ratio of oridonin IC50 to compound IC50 for antiproliferative activity against human K562 cells after 72 hrs by MTT assay; assay type: functional
K562 [9] = assay: Induction of cell cycle arrest in human K562 cells assessed as accumulation of cells at G1 phase at 100 nM incubated for 48 hrs by PI staining based flow cytometry analysis (reference value: 68.84%); assay type: functional
K562 [10] = assay: Induction of cell cycle arrest in human K562 cells assessed as accumulation of cells at G2 phase at 400 nM incubated for 48 hrs by PI staining based flow cytometry analysis (reference value: 12.31%); assay type: functional
K562 [11] = assay: Induction of cell cycle arrest in human K562 cells assessed as accumulation of cells at S phase at 200 nM incubated for 48 hrs by PI staining based flow cytometry analysis (reference value: 18.85%); assay type: functional
[12] = Selectivity index, ratio of IC50 for human L02 cells to IC50 for human SMMC-7721 cells; assay type: toxicity; settings: L02 cells versus SMMC-7721 cells, read-out: Ratio IC50
K562 [13] = assay: Induction of apoptosis in human K562 cells assessed as viable cells at 100 nM incubated for 48 hrs by Annexin-V and PI staining based flow cytometry analysis (reference value: 93.87%); assay type: functional; settings: read-out: Activity
K562 [14] = assay: Induction of apoptosis in human K562 cells assessed as early apoptotic cells at 400 nM incubated for 48 hrs by Annexin-V and PI staining based flow cytometry analysis (reference value: 1.98%); assay type: functional
K562 [15] = assay: Induction of apoptosis in human K562 cells assessed as late apoptotic cells at 100 nM incubated for 48 hrs by Annexin-V and PI staining based flow cytometry analysis (reference value: 2.42%); assay type: functional
[16] = Cytotoxicity against human L02 cells incubated for 72 hrs by MTT assay; assay type: toxicity, cell-based
K562 [17] = assay: Induction of cell cycle arrest in human K562 cells assessed as downregulation of cdc-25c expression incubated for 48 hrs by Western blot analysis; assay type: functional, cell-based; settings: dose 100-400 nM
K562 [18] = assay: Induction of cell cycle arrest in human K562 cells assessed as accumulation of cells at G2 phase at 200 nM incubated for 48 hrs by PI staining based flow cytometry analysis (reference value: 12.31%); assay type: functional
K562 [19] = assay: Induction of ROS generation in human K562 cells at 400 nM incubated for 48 hrs by DCFH-DA staining based flow cytometry analysis (reference value: 4.82%); assay type: functional
Cell membrane [20] = assay: Induction of mitochondrial membrane depolarization in human K562 cells incubated for 48 hrs by JC-1 staining based flow cytometry analysis; settings: Mitochondria, dose […]
K562 [21] = assay: Induction of cell cycle arrest in human K562 cells assessed as downregulation of cyclin-B1 expression incubated for 48 hrs by Western blot analysis; assay type: functional, cell-based; settings: dose 100-400 nM
SW480 = assay: Antiproliferative activity against human SW480 cells assessed as reduction in cell growth after 72 hrs by MTT assay; assay type: functional, cell-based; settings: SW480, 72 h
K562 [22] = assay: Induction of cell cycle arrest in human K562 cells assessed as accumulation of cells at S phase at 400 nM incubated for 48 hrs by PI staining based flow cytometry analysis (reference value: 18.85%); assay type: functional
K562 [23] = assay: Induction of ROS generation in human K562 cells incubated for 48 hrs by DCFH-DA staining based flow cytometry analysis; assay type: functional, cell-based; settings: dose […]
K562 [24] = assay: Induction of apoptosis in human K562 cells assessed as viable cells at 400 nM incubated for 48 hrs by Annexin-V and PI staining based flow cytometry analysis (reference value: 93.87%); assay type: functional; settings: read-out: Activity
K562 [25] = assay: Induction of apoptosis in human K562 cells assessed as necrotic cells at 400 nM incubated for 48 hrs by Annexin-V and PI staining based flow cytometry analysis (reference value: 1.72%); assay type: functional
Cell membrane [26] = assay: Induction of mitochondrial membrane depolarization in human K562 cells assessed as lower right phase cells at […] incubated for 48 hrs by JC-1 staining based flow cytometry analysis; settings: Mitochondria
K562 [27] = assay: Induction of cell cycle arrest in human K562 cells assessed as accumulation of cells at G1 phase at 400 nM incubated for 48 hrs by PI staining based flow cytometry analysis (reference value: 68.84%); assay type: functional
K562 [28] = assay: Induction of apoptosis in human K562 cells assessed as late apoptotic cells at 400 nM incubated for 48 hrs by Annexin-V and PI staining based flow cytometry analysis (reference value: 2.42%); assay type: functional
K562 [29] = assay: Induction of cell cycle arrest in human K562 cells assessed as accumulation of cells at G2 phase at 100 nM incubated for 48 hrs by PI staining based flow cytometry analysis (reference value: 12.31%); assay type: functional
K562 [30] = assay: Induction of cell cycle arrest in human K562 cells assessed as downregulation of cdc-2 expression incubated for 48 hrs by Western blot analysis; assay type: functional, cell-based; settings: dose 100-400 nM
K562 [31] = assay: Induction of apoptosis in human K562 cells assessed as early apoptotic cells at 200 nM incubated for 48 hrs by Annexin-V and PI staining based flow cytometry analysis (reference value: 1.98%); assay type: functional
K562 [32] = assay: Induction of cell cycle arrest in human K562 cells assessed as accumulation of cells at S phase at 100 nM incubated for 48 hrs by PI staining based flow cytometry analysis (reference value: 18.85%); assay type: functional

## C=C1C(=O)[C@@]23C(=O)OC[C@]4(C=CCC(C)(C)[C@H]4C=O)[C@@H]2CC[C@@H]1[C@H]3OC(=O)/C=C/c1cccnc1
MDA-MB-231
  IC50: 980 nM
K562 [1]
  IC50: 400 nM
K562 [2]
  Activity: 3.37%
K562 [3]
  Activity: 5.01%
K562 [4]
  Activity: 7.23%
K562 [5]
  Activity: 61.3%
K562 [6]
  viability at 0.2 µM: 80.9%
K562 [7]
  Activity: 4.23%
SMMC-7721
  IC50: 560 nM
K562 [8]
  Ratio IC50: 10
K562 [9]
  Activity: 64.33%
K562 [10]
  Activity: 20.53%
K562 [11]
  Activity: 24.8%
[12]
  selectivity ratio: 7.64
K562 [13]
  viability at 0.1 µM: 86%
K562 [14]
  Activity: 9.41%
K562 [15]
  Activity: 5.59%
[16]
  IC50 at 72 h: 4280 nM
K562 [17]
  Activity: Dose-Dependent Effect
K562 [18]
  Activity: 13.9%
K562 [19]
  Activity: 27.83%
Cell membrane [20]
  Activity: Dose-Dependent Effect
K562 [21]
  Activity: Dose-Dependent Effect
SW480
  IC50: 480 nM
K562 [22]
  Activity: 24.28%
K562 [23]
  Activity: Dose-Dependent Effect
K562 [24]
  viability at 0.4 µM: 68.7%
K562 [25]
  Activity: 6.37%
Cell membrane [26]
  Activity: 28.4%
K562 [27]
  Activity: 55.2%
K562 [28]
  Activity: 15.5%
K562 [29]
  Activity: 15.07%
K562 [30]
  Activity: Dose-Dependent Effect
K562 [31]
  Activity: 7.6%
K562 [32]
  Activity: 20.6%
